The values that follow come from ChEMBL document CHEMBL1123112, “A new generation of phosphodiesterase inhibitors: multiple molecular forms of phosphodiesterase and the potential for drug selectivity” (J Med Chem, 1985).

Where only a bound is given, the exact number is not on record here.

A word on the IC50: it is the concentration at which inhibition is half-maximal. The low end stands for greater potency in that assay, the high end for weaker potency in that assay. A word on the Ki: it is the equilibrium dissociation constant of an inhibitor or competing ligand from its target. A lower Ki goes with a stronger hold on the target. A word on the IC25: it is the point of the concentration-response curve where the effect stands at 25%. What is called inhibition is the percentage by which the read-out fell short of the control. Read a high inhibition as a response far below the control.

In assay [1] the target is T1, cGMP-dependent 3',5'-cyclic phosphodiesterase (Homo sapiens, UniProt O00408). The experiment in a line: Inhibition of cyclic GMP sensitive phosphodiesterase PDE 2 of guinea pig ventricle. The settings on record: target entry is the homologue from another species. On the set-up: species or system Cavia porcellus.
T1 sequence (O00408 whole entry): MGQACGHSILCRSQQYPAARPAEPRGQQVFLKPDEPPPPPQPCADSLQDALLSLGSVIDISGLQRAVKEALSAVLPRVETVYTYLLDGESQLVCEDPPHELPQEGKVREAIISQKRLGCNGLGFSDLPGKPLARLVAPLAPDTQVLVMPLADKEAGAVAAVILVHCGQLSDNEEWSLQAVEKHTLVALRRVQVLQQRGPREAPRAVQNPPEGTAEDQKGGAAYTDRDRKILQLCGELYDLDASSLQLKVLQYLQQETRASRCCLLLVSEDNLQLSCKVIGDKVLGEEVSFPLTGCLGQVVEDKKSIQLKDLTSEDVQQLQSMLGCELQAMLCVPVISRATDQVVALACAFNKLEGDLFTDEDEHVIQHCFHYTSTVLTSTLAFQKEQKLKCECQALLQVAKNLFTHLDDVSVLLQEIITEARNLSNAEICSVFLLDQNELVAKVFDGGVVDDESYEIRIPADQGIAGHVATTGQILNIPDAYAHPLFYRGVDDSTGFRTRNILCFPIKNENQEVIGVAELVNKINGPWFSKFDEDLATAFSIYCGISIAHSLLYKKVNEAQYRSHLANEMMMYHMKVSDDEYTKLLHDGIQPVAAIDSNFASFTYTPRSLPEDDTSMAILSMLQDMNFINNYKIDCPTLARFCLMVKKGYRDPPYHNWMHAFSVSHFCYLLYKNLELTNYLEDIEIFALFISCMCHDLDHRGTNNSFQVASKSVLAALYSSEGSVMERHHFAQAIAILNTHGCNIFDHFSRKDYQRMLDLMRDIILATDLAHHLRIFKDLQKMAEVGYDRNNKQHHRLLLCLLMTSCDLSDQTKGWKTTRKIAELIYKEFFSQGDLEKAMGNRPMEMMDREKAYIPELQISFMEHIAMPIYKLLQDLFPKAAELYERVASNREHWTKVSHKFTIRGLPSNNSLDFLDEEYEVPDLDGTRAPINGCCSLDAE
In assay [2] the target is T2, Phosphodiesterase 1 (Homo sapiens, UniProt P54750+Q01064+Q14123). The experiment in a line: Inhibition of [Ca(2+)]/calmodulin dependent phosphodiesterase PDE 1 of guinea pig ventricle. The settings on record: target entry is the homologue from another species. Type of assay: protein assay, Cavia porcellus.
Assay [3] addresses T3, Phosphodiesterase 3 (Homo sapiens, UniProt Q14432+Q13370). The experiment in a line: Inhibition of low Km cyclic cAMP phosphodiesterase PDE III of guinea pig ventricle. It is filed as protein assay, Cavia porcellus. The settings on record: target entry is the homologue from another species.
In assay [4] the target is T2, Phosphodiesterase 1. The experiment in a line: Binding affinity for [Ca(2+)]/calmodulin dependent phosphodiesterase PDE 1 of human brain.
For assay [5], the target named is T3, Phosphodiesterase 3. The experiment in a line: Binding affinity for low Km cAMP phosphodiesterase PDE III of human platelets.
For assay [6], the target named is T2, Phosphodiesterase 1. The experiment in a line: Inhibition of [Ca(2+)]/calmodulin dependent phosphodiesterase PDE 1 of human brain.
Assay [7] deals with T3, Phosphodiesterase 3. The experiment in a line: Inhibition of low Km cAMP phosphodiesterase PDE III of human platelets.
Assay [8] addresses T2, Phosphodiesterase 1. Put plainly: Binding affinity for [Ca(2+)]/calmodulin dependent phosphodiesterase PDE 1 of sheep lung. Type of assay: protein assay, Ovis aries. The settings on record: target entry is the homologue from another species.
The target in assay [9] is T3, Phosphodiesterase 3. The experiment in a line: Binding affinity for low Km cAMP phosphodiesterase PDE III of sheep lung. The settings on record: target entry is the homologue from another species. It is filed as protein assay, Ovis aries.
For assay [10], the target named is T1, cGMP-dependent 3',5'-cyclic phosphodiesterase. Put plainly: Inhibition of cyclic GMP sensitive phosphodiesterase PDE 2 of human lung.
Assay [11] deals with T2, Phosphodiesterase 1. The experiment in a line: Inhibition of [Ca(2+)]/calmodulin dependent phosphodiesterase PDE 1 of human lung. Type of assay: protein assay.
The target of assay [12] is T2, Phosphodiesterase 1. Put plainly: Inhibition of [Ca(2+)]/calmodulin dependent phosphodiesterase PDE 1 of rabbit renal cortex. The settings on record: Oryctolagus cuniculus; target entry is the homologue from another species.
Assay [13] deals with T1, cGMP-dependent 3',5'-cyclic phosphodiesterase. The experiment in a line: Percent inhibition of cyclic GMP sensitive phosphodiesterase PDE 2 of guinea pig ventricle. The settings on record: Cavia porcellus; target entry is the homologue from another species; concentration not given here.
For assay [14], the target named is T2, Phosphodiesterase 1. The experiment in a line: Percent inhibition of [Ca(2+)]/calmodulin dependent phosphodiesterase PDE 1 of guinea pig ventricle. Type of assay: protein assay. The settings on record: Cavia porcellus; target entry is the homologue from another species; concentration not given here.
The target in assay [15] is T3, Phosphodiesterase 3. The experiment in a line: Percent inhibition of low Km cyclic cAMP phosphodiesterase PDE III of guinea pig ventricle. Type of assay: protein assay. The settings on record: Cavia porcellus; target entry is the homologue from another species; concentration not given here.
In assay [16] the target is T3, Phosphodiesterase 3. Put plainly: Inhibition of low Km cyclic AMP phosphodiesterase PDE III of canine ventricle. The settings on record: target entry is the homologue from another species. Type of assay: protein assay, Canis lupus familiaris.
The target in assay [17] is T3, Phosphodiesterase 3. The experiment in a line: Binding affinity for low Km cAMP phosphodiesterase PDE III of sheep lung. The settings on record: target entry is the homologue from another species.

For `COc1ccc(-c2nc3ccc[nH]c-3n2)c(OC)c1`, the values for the IC50 (in [1]; on Phosphodiesterase 1 [2]; on Phosphodiesterase 3 [3]) were 57 µM, 265 µM and 390 µM, respectively. Consider `CN(C(=O)CCCOc1ccc2[nH]c(=O)ccc2c1)C1CCCCC1` [CILOSTAMIDE], for which, on Phosphodiesterase 1 [4], the Ki came to 22 µM.

On to `CCOC(CN1CCN(S(=O)(=O)c2ccc3ncnc(N(C)c4ccccc4)c3c2)CC1)c1ccccc1` (centres undefined), for which the values for the Ki on Phosphodiesterase 1 [4] and on Phosphodiesterase 3 [5] were 4 µM and 270 µM, respectively. In the case of `Nc1cc(-c2ccncc2)c[nH]c1=O` [INAMRINONE], the results for the IC50 (in assay [1]; at Phosphodiesterase 1 [2]) were 700 µM and over 1000 µM, respectively. As for `O=C1CCc2cc(OCCCCc3nnnn3C3CCCCC3)ccc2N1` [CILOSTAZOL], the values for the IC50 against Phosphodiesterase 1 [6] and against Phosphodiesterase 3 [7] were over 1000 µM and 0.19 µM, respectively. Turning to `CCOC(=O)c1cnc2c(cnn2CC)c1NN=C(C)C` [ETAZOLATE], the Ki at Phosphodiesterase 1 [8] was determined as 60 µM; on Phosphodiesterase 3 [9], 12 µM. Consider `CC(C)Cn1c(=O)n(C)c(=O)c2nc[nH]c21` [ISOBUTYLMETHYLXANTHINE], for which the IC50 is 12 µM in assay [10] and 3.4 µM at Phosphodiesterase 1 [11]. For the compound `Cn1c(=O)c2nc[nH]c2n(C)c1=O.O` [THEOPHYLLINE], the IC50 was found to be 210 µM in assay [1] and 320 µM against Phosphodiesterase 1 [2]. With `CCCCOc1cc(CC2CNC(=O)N2)ccc1OC` (centres undefined) [RO-201724], the IC50 in assay [10] is 390 µM; against Phosphodiesterase 1 [11] it was 250 µM.

On to `CCCCc1cc2c(=O)cc(C(=O)O)[nH]c2c2c(=O)cc(C(=O)O)[nH]c12` [BUFROLIN], for which the figures for the IC50 (in assay [10]; on Phosphodiesterase 1 [11]) were 80 µM and 16 µM, respectively. For the compound `CCC(O)CN(C(=O)CCCCOc1ccc2c(c1)CCC(=O)N2)c1ccccc1` (centres undefined), the values for the IC50 against Phosphodiesterase 1 [6] and on Phosphodiesterase 3 [7] were over 1000 µM and 0.073 µM, respectively.

`OCCN(CCO)c1nc(N2CCCCC2)c2nc(N(CCO)CCO)nc(N3CCCCC3)c2n1` [DIPYRIDAMOLE] returned an IC50 against Phosphodiesterase 3 [3] of 43 µM. As to `CCOC(=O)c1c(C)cc2c(CO)n[nH]c(=O)c2c1C` [OXAGRELATE], the Ki turned out to be 10 µM on Phosphodiesterase 1 [4] and 1.4 µM at Phosphodiesterase 3 [5]. Turning to `COc1ccc(C2CNC(=O)C2)cc1OC1CCCC1` (centres undefined), on Phosphodiesterase 1 [12], the IC25 came out at 1400 µM. Regarding `CC1CC(=O)NN=C1c1ccc2c(c1)CCC(=O)N2C` (centres undefined), the results for the inhibition (in assay [13]; on Phosphodiesterase 1 [14]; on Phosphodiesterase 3 [15]) were 6%, 15% and 97%, respectively.

`CCc1[nH]c(=O)[nH]c1C(=O)c1ccncc1` [PIROXIMONE] displayed an IC50 on Phosphodiesterase 3 [16] of 8.6 µM. This lies in the single-digit micromolar range. `COc1cc([S+](C)[O-])ccc1-c1nc2ncccc2[nH]1` (centres undefined) [SULMAZOLE]: half-maximal inhibition in assay [1] (IC50) required 200 µM.

For `CSc1ccc(C(=O)c2[nH]c(=O)[nH]c2C)cc1` [ENOXIMONE], the values for the half-maximal inhibitory concentration (IC50) (in assay [1]; against Phosphodiesterase 1 [2]) were 520 µM and over 1000 µM, respectively. With `CCCc1nc(C)cn2c(NC(C)=O)nnc12`, the figures for the Ki on Phosphodiesterase 1 [8] and on Phosphodiesterase 3 [17] were 717 µM and 217 µM, respectively. In the case of `CC(Cl)C(=O)Nc1ccc(C2=NNC(=O)CC2C)cc1` (centres undefined), the results for the inhibition (in [13]; on Phosphodiesterase 1 [14]; against Phosphodiesterase 3 [15]) were 0%, 5% and 92%, respectively. For `Clc1cccc(Nc2nnc(-c3ccccc3)c3ccccc23)c1`, the Ki on Phosphodiesterase 3 [5] is 16 µM. This lies in the double-digit micromolar range.
